Where “and” joins values, the source holds several entries; their conditions need not be identical. Equal entries are not always repeated. Square brackets hold non-standard residues; d marks the D form. Peptide text beside a SMILES is read from it.
What was measured:
[1] = tested on: patients with MCI or mild dementia due to AD; assay: CERAD word list learning and recall; format: in vivo, human; set-up: key to WL Recall (Word list recall test), Mean / WL Recall: words recalled after delay, out of the 10-word list; key to WL learn (CERAD Word list learning), Mean / WL learn: words recalled summed over 3 trials of a 10-word list; details: for WL Recall / WL learn: individual patient values, PRI-002 group; for WL learn, individual patients: one line per patient
Procedure: The CERAD Word Learning Test is a part of the CERAD cognitive test battery and assesses memory function, particularly for ADe and other dementias[34],[35]. It includes three parts: immediate recall, delayed recall, and recognition. During the test administration, a list of 10 words is read aloud three times, with the participant recalling as many as possible after each trial (immediate recall). After a delay of 5–10 min, they attempt to recall the words again (delayed recall), followed by a recognition task where they identify original words from a mixed list (recognition). The scores from the CERAD Word Learning Test are interpreted using normative data, which consider the participant’s age, gender, and education level. Normal range scores are considered between the 16th and 84th percentiles (z-score -1 to +1). For MCI scores between the 2nd and 15th percentiles (z-score -1 to -2) are expected. For significant cognitive impairment scores below the 2nd percentile (z-score < -2) are considered.

Aβ 1-40, Aβ 1-42 = assay: CSF Aβ 1-42 and ratio Aβ42/40, Lumipulse immunoassay; format: in vivo, human; details: Day 28, one line per patient, 300 mg q.d. oral 28 d
Procedure: (§1) The effect of PRI-002 on cognition and function was tested by the CERAD+ battery and CDR-SB at baseline, Day 28, and Day 56, exploratory endpoints included the change of biomarkers (p-tau, t-tau, Aβ 1-40, Aβ 1-42 and Aβ oligomers) in CSF, blood plasma; change in CERAD+ test battery and CDR-SB scores.

t-tau = assay: CSF t-tau, Lumipulse immunoassay; format: in vivo, human; details: Day 28, n=9, 300 mg q.d. oral 28 d
Procedure: as §1

[2] = tested on: patients with MCI or mild dementia due to AD; assay: Safety laboratory (hematology, clinical chemistry, hematoserology); format: in vivo, human; details: 300 mg q.d. oral 28 d
Procedure: All safety parameters and laboratory values (urinalysis, complete blood count (CBC), Quick, partial thromboplastin time (PTT), creatinine, […] (CK), […] (CRP), alanine aminotransaminase (ALT), aspartate aminotransferase (AST)) as well as ECG, EEG, MRI, and vital signs were analyzed in a descriptive manner according to their scales (frequencies, means). In order to compare a variable between both groups (placebo vs PRI-002) at one time point, a parameter free Wilcoxon rank sum test was used. As described in the statistical analysis plan, linear mixed models with random effect were used for the comparison of longitudinal effects between both groups (placebo vs PRI-002). ANOVA was also applied to assess longitudinal effects. Since the results are similar to the linear mixed models, results are presented using linear mixed models. A 95% confidence interval was used to check whether the parameters are within their normal ranges. The p value (p < 0.05) for the word list test was not corrected for multiplicity. All statistical data analysis was performed with the certified software Statistical Analysis System (SAS) by MicroDiscovery GmbH (Berlin, Germany).

[3] = Day 1 of the MAD study; dose 320 mg/person; cited from earlier work
Procedure: On the two test days (Day 1 and Day 28), plasma levels were highly variable (Fig. 1). Coefficient of variations (CVs) were clearly above 100% at 0.5 h after the first treatment and at the pre-treatment time of Day 28 (Supplementary Table 8). […] The high variability is due to a non-Gaussian data distribution. Mean maximum plasma levels on Day 1 (Day 28) of 4.46 ± 3.71 ng/ml (12.6 ...

p-tau = assay: CSF p-tau181, Lumipulse immunoassay; format: in vivo, human; details: Day 28, n=9, 300 mg q.d. oral 28 d
Procedure: as §1

Aβ oligomers = assay: CSF Aβ oligomers, sFIDA technology; format: in vivo, human
Procedure: as §1

[4] = EoT (Day 28), geometric mean ± SD
[5] = FU EoS (Day 56), geometric mean ± SD

CC(C)C[C@@H](NC(=O)[C@H](NC(=O)[C@H]1CCCN1)[C@H](C)O)C(=O)N[C@H](Cc1c[nH]cn1)C(=O)N[C@@H](C(=O)N[C@H](Cc1c[nH]cn1)C(=O)N[C@H](CC(N)=O)C(=O)N[C@H](CCCNC(=N)N)C(=O)N[C@H](CCCNC(=N)N)C(=O)N[C@H](CCCNC(=N)N)C(=O)N[C@H](CCCNC(=N)N)C(=O)N[C@H](CCCNC(=N)N)C(N)=O)[C@H](C)O [PRI-002] (H-[dP][dT][dL][dH][dT][dH][dN][dR][dR][dR][dR][dR]-NH2; N-terminus and C-terminus assumed)
WL Recall ([1]; Day 1): 3 and 4 and 1 and 5 and 7 and 9
WL learn ([1]; Day 1): 14 and 10 and 13 and 11 and 20 and 16 and 25
WL learn (CERAD Word list learning), Mean ([1]; Day 28 (end of treatment), n=8, 300 mg q.d. oral 28 d): 17.3 and 17.25
WL Recall ([1]; Day 28): 4 and 5 and 0 and 6 and 10 and 7
WL learn ([1]; Day 28): 15 and 14 and 12 and 16 and 25 and 17
WL Recall (Word list recall test), Mean ([1]; Day 28, n=8, 300 mg q.d. oral 28 d): 6.0
WL learn, individual patients ([1]; Day 28, 300 mg q.d. oral 28 d): 16 and 25 (2×) and 17 and 14 (2×) and 15 and 12
WL learn (CERAD Word list learning), Mean ([1]; Day 56 (End of Study), n=9, PV 0.036 vs placebo (Wilcoxon), 300 mg q.d. oral 28 d): 19.3 and 19.33
performance in the CERAD word list versus placebo ([1]; Day 56, P ≤ 0.05, not corrected for multiplicity, 300 mg q.d. oral 28 d): significantly better
WL Recall ([1]; Day 56): 5 and 4 and 3 and 8 and 10
WL learn ([1]; Day 56): 18 and 16 and 17 and 24 and 30
WL Recall (Word list recall test), Mean ([1]; Day 56, n=9, 300 mg q.d. oral 28 d): 5.4
WL learn, individual patients ([1]; Day 56, 300 mg q.d. oral 28 d): 18 (3×) and 24 and 30 and 17 (2×) and 16 (2×)
verum treated patients with improvement of memory function in the CERAD word list test ([1]; Day 56 versus baseline, of 9 patients, 300 mg q.d. oral 28 d): 9
Cohen's d effect size, WL learn, PRI-002 vs placebo ([1]; day 56, pooled SD, 300 mg q.d. oral 28 d): 0.94
Difference WL learn Baseline (day 1) to EoS (day 56), individual patients ([1]; one line per patient 1-9, 300 mg q.d. oral 28 d): 7 and 4 (2×) and 2 and 5 and 1 and 6 and 3 (2×)
Aβ42, individual patients (Aβ 1-40, Aβ 1-42): 350 pg/mL and 512 pg/mL and 223 pg/mL and 748 pg/mL and 456 pg/mL and 595 pg/mL and 670 pg/mL and 791 pg/mL and 820 pg/mL
Ratio Aβ42/40, individual patients (Aβ 1-40, Aβ 1-42): 0.033 and 0.050 and 0.026 and 0.042 and 0.036 and 0.045 and 0.059 and 0.056 and 0.047
t-tau, Mean (t-tau): 698.7 pg/mL
Hematocrit ([2]; Baseline (Day 1), geometric mean ± SD): 0.38±0.03 l/l
Erythrocyte ([2]; Day 14, geometric mean ± SD): 4.14 ± 0.42 pL⁻¹
Leucocyte ([2]; Day 14, geometric mean ± SD): 5.95 ± 1.71 nL⁻¹
PTT ([2]; Day 14, geometric mean ± SD): 31.60 ± 3.95 s
Quick value (prothrombin time) ([2]; Day 14, geometric mean ± SD): 96.99±21.30%
Erythrocyte [2, 4]: 4.06 ± 0.44 pL⁻¹
Leucocyte [2, 4]: 5.86 ± 1.81 nL⁻¹
PTT [2, 4]: 29.71 ± 1.94 s
Quick value (prothrombin time) [2, 4]: 101.13±9.55%
Erythrocyte [2, 5]: 4.10 ± 0.50 pL⁻¹
Hematocrit [2, 5]: 0.40±0.03 l/l
Leucocyte [2, 5]: 5.66 ± 1.41 nL⁻¹
PTT [2, 5]: 30.96 ± 3.11 s
Quick value (prothrombin time) [2, 5]: 98.71±21.08%
Hematocrit ([2]; Screening (Day 0), geometric mean ± SD): 0.39±0.03 l/l
changes in laboratory parameters (clinical chemistry, blood count, hematoserology) ([2]; screening to midterm visit to end of treatment): no clinically relevant changes
AUC0-4 hour [3]: 33.7 ng·h/mL
partial AUC up to 4 h as percentage of total AUC [3]: 44.2%
p-tau, Mean (p-tau): 112.4 pg/mL
Aβ42 oligomers, Mean (Aβ oligomers; CSF, Day 28, n=9, 300 mg q.d. oral 28 d): 4.747 fM
slope Abeta oligomers, individual patients (Aβ oligomers; CSF, change from Day 1 to Day 28, one line per patient (n = 9), 300 mg q.d. oral 28 d): 1.237 and 0.635 and 0.4087 and 0.1526 and 0.3147 and -0.0095 and -0.4177 and -0.1322 and 0.7258
changes in p-tau, t-tau, Aβ 1-40, Aβ 1-42 and Aβ oligomers in CSF (Aβ oligomers; Day 28 versus baseline and versus placebo, 300 mg q.d. oral 28 d): no significant changes
relationship between changes in Aβ oligomer concentrations and PRI-002 plasma levels at Day 1 (Aβ oligomers; Spearman, two-tailed, n = 9): significant inverse relationship
